According to patent US12624068B2, “Exon skipping by peptide nucleic acid derivatives” (OliPass Corporation, priority 2016, dated 2026):
{Fethoc} = N-terminal Fethoc cap; [C(1O2)] = modified PNA monomer acting as cytosine, C(pOq) type, 1O2; [A(5)] = modified PNA monomer acting as adenine, A(p) type, p=5; [G(5)] = modified PNA monomer acting as guanine, G(p) type, p=5; {NH2} = C-terminal amide

Tests used:
[1] = system: full-length SCN9A mRNA; experiment: SCN9A qPCR by cDNA synthesis with random hexamers in rat L5 DRG cells; format: cell-based; settings: 24 hours
Experimental: “SCN-ASO 30” was evaluated by SCN9A qPCR for its ability to inhibit the expression of the SCN9A mRNA in rat L5 DRG cells. Total RNA was prepared as described in “SCN9A Example 15”, and subjected to cDNA synthesis using random hexamers.
The cDNA solutions were also subjected to qPCR amplification for the GAPDH mRNA. The Ct values of the SCN9A mRNA were normalized against the Ct values of GAPDH mRNA.

[2] = system: 10-mer complementary DNA; experiment: Tm between PNA derivatives and 10-mer complementary DNA (N- or C-terminal); format: binding; settings: uncorrected
Method in brief: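 Tm read by UV at 260 nm for duplexes formed by annealing (90 °C for a minute, slow cooling to ambient) of equimolar 4 μM PNA and complementary 10-mer DNA targeting N- or C-terminal, in 10 mM sodium phosphate, 100 mM NaCl, pH 7.16.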

[3] = system: Nav1.7 protein; experiment: Nav1.7 western blot in rat L5 DRG neuronal cells; format: cell-based; settings: rat DRG neuronal cells (L5/L6 ligation)
Experimental: “SCN-ASO 30” was evaluated for its ability to inhibit the expression of Nav1.7 protein in rat DRG neuronal cells as described below.
[Preparation of DRG Neuronal Cells] Male SD rats (7 weeks old) were subjected to tight “L5/L6 ligation”. 7 days later, 4 rats were anesthetized with zoletil/rompun to sample the L5 DRG of the ligated side. The DRGs were pooled and processed to prepare DRG neuronal cells as described in “SCN9A Example 12”.
[ASO Treatment] DRG neuronal cells were treated with “SCN-ASO 30” at 0 (negative control), 10, 100 or 1,000 zM for 24 hours, and then subjected to lysis for western blot against a Nav1.7 antibody (Cat. No. ab85015, Abcam) probing the C-terminal of the Nav1.7 protein. β-actin was probed for reference.

[4] = system: sodium current in rat L5 DRG neuronal cells; experiment: Manual patch clamp sodium current in rat L5 DRG neuronal cells; format: cell-based; settings: rat L5 DRG neuronal cells (L5/L6 ligation), small size, 100 zM, 4 hours
Experimental: “SCN-ASO 30” was evaluated for its ability to inhibit the sodium current in rat L5 DRG neuronal cells stimulated with L5/L6 ligation as provided below.
[Preparation of DRG Neuronal Cells] Male SD rats (6 weeks old) were subjected to tight “L5/L6 ligation”. 7 days later, rats were anesthetized with zoletil/rompun for the extraction of L5 DRG of the ligated side. […]

[5] = system: AR mRNA; experiment: qPCR by SYBR Green for AR mRNA in MCF7 cells; settings: 5 hours
Experimental: [ASO Treatment and RNA Extraction] […] (2 culture dishes per concentration) 5 hours later, total RNA was extracted using “MiniBEST Universal RNA Extraction Kit” according to the manufacturer's instructions (Cat. Number 9767, Takara).
[cDNA Synthesis with OligodT]
The PCR reactions were probed by SYBR Green (Takara, Japan).

[6] = system: human AR pre-mRNA; experiment: AR nested PCR for exon skipping in MCF7 cells; format: cell-based; settings: 3 hours
Experimental: “AR-ASO 1” was evaluated by AR nested PCR for its ability to induce the skipping of exon 5 of the human AR mRNA in MCF7 cells as follows. [Cell Culture & ASO Treatment] MCF7 cells (Cat. Number: HTB-22, ATCC) were maintained in EMEM medium supplemented with 10% FBS, 1% streptomycin/penicillin, and 0.01 mg/mL bovine insulin under 5% CO2 atmosphere at 37° C. Cells grown in 60 mm culture dish were treated with “AR-ASO 1” for 3 hours at 0 (negative control), 3, 30, 300 or 3,000 aM (i.e., 3 fM). [RNA Extraction] Total RNA was extracted using “Universal RNA Extraction Kit” (Cat. No. 9767, Takara) according to the manufacturer's instructions [cDNA Synthesis by One Step RT-PCR] […] NO: 55); and AR-exon 9_reverse: (5'→3') […] [Nested PCR Amplification] Throughout the amplification process, was used a unique amplification technique (touch up as increasing annealing temperature per cycle) that worked efficiently and specifically over a temperature range, rather than at one specific annealing temperature (i.e., conventional PCR method). […] NO: 57); and AR-exon 7n_reverse: (5'→3') […] […] The bands of target size were collected and analyzed by Sanger Sequencing. […] “AR-ASO 1” was evaluated for its exon skipping ability in MCF7 cells grossly showing the morphology of cumulus shape as described in “AR Example 1”, unless noted otherwise. […]

[7] = system: AR protein; experiment: AR western blot in MCF7 cells; format: cell-based, human; settings: 10 zM to 30 aM, 48 hours
Experimental: 4 culture dishes for the negative control. 48 hours later, cells were washed 2× with cold PBS, and then subjected to lysis with 200 μL 1× cell lysis buffer (Cat. No. 9803, Cell Signaling Tech) supplemented with 1× protease inhibitors (Cat. No. P8340, Sigma). The lysates were collected in 1.5 mL e-tube. 200 μL of each lysate was mixed with 100 μL 3× sample buffer, and boiled for 5 min. 20 μL of each lysate (4 negative controls and 8 ASO treatment samples) was subjected to electrophoretic separation on a 8% SDS-PAGE gel, and transferred onto a PVDF membrane. The membrane was probed with an anti-AR antibody (Cat. Number 5153, Cell Signaling Tech) and an anti-3-actin antibody (Cat. Number sc4778, Santa Cruz).

Row | Substance | decrease of full-length SCN9A mRNA expression level (random hexamers, normalized against GAPDH) [1] | Tm Value, 10-mer DNA against C-Terminal [2] [°C] | Tm Value, 10-mer DNA against N-Terminal [2] [°C] | full-length Nav1.7 protein band at 220-240K ([3]; 10 zM, 24 hours) | Nav1.7 expression by western blot ([3]; 100 and 1,000 zM, 24 hour) | decrease of sodium current (manual patch clamp, normalized against cell size) [4] [%] | AR exon levels (SYBR Green), rebound ([5]; 1 aM (1,000 zM)) | decrease of AR exon 4-6 levels (SYBR Green) ([5]; 100 zM) | skipping of AR exon 5 by nested PCR ([6]; MCF7 cells of cumulus shape morphology, 30, 100 or 1,000 aM) | AR exon skipping by nested PCR ([6]; MCF7 cells, 3, 30, 300 or 3,000 aM) | AR band (120K size) intensity by western blot [7]
1 | Fethoc-AA(5)G-TG(5)T-A(5)CC(1O2)-TA(5)A-A(5)G-NH2 (AAGTGTACCTAAAG; all peptide nucleic acid (PNA), [A(5)] at 2, 7, 11, 13, [G(5)] at 5, [C(1O2)] at 9, 5' {Fethoc}, 3' {NH2}; peptide nucleic acid written N to C) [SCN-ASO 30] | 45-75% | 74.0 | 79.0 | detected | markedly inhibited | ~90 | – | – | – | – | –
2 | Fethoc-C(1O2)TT-A(5)CC-A(5)GG-C(1O2)AA(5)-G-NH2 (antisense CTTACCAGGCAAG; all peptide nucleic acid (PNA), [C(1O2)] at 1, 10, [A(5)] at 4, 7, 12, 5' {Fethoc}, 3' {NH2}; peptide nucleic acid backbone) [AR-ASO 1] | – | 81.3 | 86.1 | – | – | – | rebounded close toward the negative control levels | 40-50% | distinctively predominant | induce the skipping of exon 5, exons 4-5, and exons 4-6 | weaker than the intensity of their neighboring lysates
